In publication PMC6155776, “Synthesis of Novel Pyrazinamide Derivatives Based on 3-Chloropyrazine-2-carboxamide and Their Antimicrobial Evaluation” (Molecules : A Journal of Synthetic Chemistry and Natural …, 2017):
Values after ≈ are worked out from the molar mass of the structure shown. Read-outs that look alike come from different tables or passages of the source.

Legend:
Assay in all cases: microbe, parasite or virus in culture
Type in all cases: cell-based
M. tbc 9449/2007 = conditions: Mycobacterium tuberculosis, read-out: Minimum inhibitory concentrations M. tbc 9449/2007
M. tbc 234/2005 = conditions: Mycobacterium tuberculosis, read-out: Minimum inhibitory concentrations M. tbc 234/2005
M. tbc PRAHA 1 = conditions: Mycobacterium tuberculosis, read-out: Minimum inhibitory concentrations M. tbc PRAHA 1
M. tbc PRAHA 4 = conditions: Mycobacterium tuberculosis, read-out: Minimum inhibitory concentrations M. tbc PRAHA 4
M. tbc PRAHA 131 = conditions: Mycobacterium tuberculosis, read-out: Minimum inhibitory concentrations M. tbc PRAHA 131
[1] = system: four MDR-TB strains and one XDR-TB strain; conditions: Mycobacterium tuberculosis, read-out: MIC against resistant M. tuberculosis strains

| SMILES | MIC (M. tbc 9449/2007; 9449/2007, 336 h) | MIC (M. tbc 9449/2007; 9449/2007, 504 h) | MIC (M. tbc 234/2005; 234/2005, 336 h) | MIC (M. tbc 234/2005; 234/2005, 504 h) | MIC (M. tbc PRAHA 1; PRAHA1, 336 h) | MIC (M. tbc PRAHA 1; PRAHA1, 504 h) | MIC (M. tbc PRAHA 4; PRAHA4, 336 h) | MIC (M. tbc PRAHA 4; PRAHA4, 504 h) | MIC (M. tbc PRAHA 131; PRAHA131, 336 h) | MIC (M. tbc PRAHA 131; PRAHA131, 504 h) | MIC [1] |
| --- | --- | --- | --- | --- | --- | --- | --- | --- | --- | --- | --- |
| CO[C@H]1/C=C/O[C@@]2(C)Oc3c(C)c(O)c4c(O)c(c(/C=N/N5CCN(C)CC5)c(O)c4c3C2=O)NC(=O)/C(C)=C\C=C\[C@H](C)[C@H](O)[C@@H](C)[C@@H](O)[C@@H](C)[C@H](OC(C)=O)[C@@H]1C [RFM, rifampicin, reference compound] | > 15.6 µM | > 15.6 µM | > 15.6 µM | > 15.6 µM | > 15.6 µM | > 15.6 µM | > 15.6 µM | > 15.6 µM | > 15.6 µM | > 15.6 µM | – |
| Cc1ccc(CNc2nccnc2C(N)=O)cc1 [Compound 8, 3-[(4-Methylbenzyl)amino]pyrazine-2-carboxamide] | 250 µM (≈ 60.6 µg/mL) | 250 µM (≈ 60.6 µg/mL) | 250 µM (≈ 60.6 µg/mL) | 250 µM (≈ 60.6 µg/mL) | 250 µM (≈ 60.6 µg/mL) | 250 µM (≈ 60.6 µg/mL) | 250 µM (≈ 60.6 µg/mL) | 250 µM (≈ 60.6 µg/mL) | 250 µM (≈ 60.6 µg/mL) | 250 µM (≈ 60.6 µg/mL) | 250 µM (≈ 60.6 µg/mL) |
| NNC(=O)c1ccncc1 [INH, isoniazid, reference compound] | 62.5 µM (≈ 8.57 µg/mL) | 62.5 µM (≈ 8.57 µg/mL) | 15.6 µM (≈ 2.14 µg/mL) | 15.6 µM (≈ 2.14 µg/mL) | 15.6 µM (≈ 2.14 µg/mL) | 15.6 µM (≈ 2.14 µg/mL) | 15.6 µM (≈ 2.14 µg/mL) | 31.2 µM (≈ 4.29 µg/mL) | 15.6 µM (≈ 2.14 µg/mL) | 31.2 µM (≈ 4.29 µg/mL) | – |
| NC(=O)c1nccnc1NCc1ccc(N)cc1 [Compound 9, 3-[(4-Aminobenzyl)amino]pyrazine-2-carboxamide] | 62.5 µM (≈ 15.2 µg/mL) | 62.5 µM (≈ 15.2 µg/mL) | 62.5 µM (≈ 15.2 µg/mL) | 62.5 µM (≈ 15.2 µg/mL) | 62.5 µM (≈ 15.2 µg/mL) | 62.5 µM (≈ 15.2 µg/mL) | 62.5 µM (≈ 15.2 µg/mL) | 62.5 µM (≈ 15.2 µg/mL) | 62.5 µM (≈ 15.2 µg/mL) | 125 µM (≈ 30.4 µg/mL) | 62.5 µM (≈ 15.2 µg/mL) |
